# From publication PMC10584170, “Machine learning-based phenotypic imaging to characterise the targetable biology of Plasmodium falciparum male gametocytes for the development of transmission-blocking antimalarials” (PLOS Pathogens, 2023)
# Where two headings read alike, the source gives them in different places.
# Assays:
# [1] = tested on: P. falciparum male gametocytes; assay: P. falciparum Dual Gamete Formation Assay (PfDGFA), male readout (exflagellation); format: cell-based, Plasmodium falciparum NF54; settings: for Activity: hit = >50% inhibition in male or female readout in at least 3 replicates, 0 = no class assigned
# Method: (§1) P. falciparum NF54 (originally isolated from an imported malaria case in the Netherlands in the 1980s; BEI Resources, cat. No. MRA-1000) strain asexual parasites were maintained between 0.3–5% parasitaemia by regular passage in complete culture medium (RPMI supplemented with 25 mM HEPES, 50 μg ml^−1 hypoxanthine, 4.8 g l^−1 NaHCO3, 2mM L-glutamine, 5% pooled type AB serum, 0.5% Albumax II (Gibco)) at 4% haematocrit in washed whole blood (National Blood and Transfusion Service or Centro de Transfusiones de la Comunidad de Madrid CTCM) under a 1% O2/3% CO2/96% N2 environment. Gametocytes were induced by seeding culture flasks at 2% parasitaemia/4% haematocrit and subjecting them to daily medium changes for 14 days whilst maintaining a temperature of 37°C at all times. On Day 14, the maturity of gametocytes was assessed by quantifying male gametogenesis (exflagellation). A 20 μl sample of gametocyte culture was mixed with equal volume of ookinete medium (complete culture medium supplemented with 0.1 μM xanthurenic acid) at room temperature and transferred to a haemocytometer. After 20 min at room temperature, exflagellation was accurately quantified as described in Delves et al. 2016 [17].
# (§2) The Pf DGFA was performed as described in Delves et al. 2016 [17]. […] Plates were then incubated for 24 h at 37°C in a humidified box under a 1% O2/3% CO2/96% N2 gas mix. Gametogenesis was triggered by addition of 10 μl per well of ookinete medium + 0.27 μg ml^-1 Cy3-labelled anti-Pfs25 antibody. Plates were incubated on a metal block at 4°C for 4 min to ensure even cooling, then 28°C for a further 4 min. Exflagellation was recorded by capturing 10 frames over 1 s under brightfield illumination using a x4 objective with a 1.5x zoom (effectively x6) attached to an automated Nikon Ti fluorescence microscope. After recording exflagellation, plates were incubated for a further 24 h in the dark at 28°C to ensure maximal expression of Pfs25 by female gametes. The plates were then returned to the microscope and female gametes imaged at x6 using fluorescence microscopy.
# (§3) Exflagellation centres and female gametes were quantified using custom image analysis pipelines developed within ICY Bioimage Analysis (https://icy.bioimageanalysis.org/).
# [2] = tested on: P. falciparum female gametocytes; assay: P. falciparum Dual Gamete Formation Assay (PfDGFA), female readout (Pfs25-positive female gametes); format: cell-based, Plasmodium falciparum NF54
# Method: as §1, §2, §3
# [3] = PfDGFA at 2µM, 24h preincubation with gametocytes prior to induction of gametogenesis, replicate R1
# [4] = PfDGFA at 2µM, 24h preincubation with gametocytes prior to induction of gametogenesis, replicate R3
# [5] = PfDGFA at 2µM, 24h preincubation with gametocytes prior to induction of gametogenesis, replicate R4
# [6] = PfDGFA at 2µM, 24h preincubation, average of replicates
# [7] = 2µM, 24h preincubation with gametocytes prior to induction of gametogenesis, average of replicates
# [8] = 2µM, 24h preincubation with gametocytes prior to induction of gametogenesis, replicate R1
# [9] = 2µM, 24h preincubation with gametocytes prior to induction of gametogenesis, replicate R3
# [10] = 2µM, 24h preincubation with gametocytes prior to induction of gametogenesis, replicate R4
# [11] = 2µM, 24h preincubation, hits selected on >50% inhibition in the male readout across replicates
# [12] = PfDGFA at 2µM, 24h preincubation
# [13] = 2µM, 24h preincubation, hits selected on >50% inhibition in the female readout across replicates
# [14] = 2µM, 24h preincubation with gametocytes, average of replicates
# [15] = 2µM, 24h preincubation with gametocytes, replicate R1
# [16] = 2µM, 24h preincubation with gametocytes, replicate R3
# [17] = 2µM, 24h preincubation with gametocytes, replicate R4
# [18] = 2µM, 24h preincubation, number of replicates with >50% inhibition in the male readout
# [19] = 2µM, 24h preincubation, number of replicates with >50% inhibition in the female readout
# [20] = PfDGFA at 2µM, 24h preincubation with gametocytes, average of replicates
# [21] = PfDGFA at 2µM, 24h preincubation with gametocytes, replicate R1
# [22] = PfDGFA at 2µM, 24h preincubation with gametocytes, replicate R4
Compound,"Average inhibition male (%) [1, 7] [%]","% inhibition male (individual replicates) R1 [1, 8] [%]","% inhibition male (individual replicates) R3 [1, 9] [%]","% inhibition male (individual replicates) R4 [1, 10] [%]","HitlevelM [1, 11]","Activity [1, 12]","Average inhibition female (%) [2, 7] [%]","% inhibition female (individual replicates) R1 [2, 8] [%]","% inhibition female (individual replicates) R3 [2, 9] [%]","% inhibition female (individual replicates) R4 [2, 10] [%]","HitlevelF [2, 13]",other results
c1ccc2sc(Sc3ncnc4sccc34)nc2c1 [TCMDC-125539],–,–,–,–,–,–,–,–,–,–,–,"Selectivity Ratio M ([1]; HepG2 Tox50 versus male IC50): 337.73; inhibition at 2 µM ([1]; Plasmodium falciparum, 2µM, 24h preincubation with gametocytes, average of replicates, read-out: Average inhibition male (%)): 97.1%; inhibition at 2 µM ([1]; Plasmodium falciparum, 2µM, 24h preincubation with gametocytes, replicate R1, read-out: % inhibition male (individual replicates) R1): 100%; inhibition at 2 µM ([1]; Plasmodium falciparum, 2µM, 24h preincubation with gametocytes, replicate R2, read-out: % inhibition male (individual replicates) R2): 97.4%; inhibition at 2 µM ([1]; Plasmodium falciparum, 2µM, 24h preincubation with gametocytes, replicate R3, read-out: % inhibition male (individual replicates) R3): 95.7%; inhibition at 2 µM ([1]; Plasmodium falciparum, 2µM, 24h preincubation with gametocytes, replicate R4, read-out: % inhibition male (individual replicates) R4): 94.9%; IC50 ([1]; Plasmodium falciparum, PfDGFA, 24 h incubation with gametocytes before induction, exflagellation readout, read-out: Male IC50): 300 nM; Selectivity ratio F ([2]; HepG2 Tox50 versus female IC50): 340.93; inhibition at 2 µM ([2]; Plasmodium falciparum, 2µM, 24h preincubation with gametocytes, average of replicates, read-out: Average inhibition female (%)): 60%; inhibition at 2 µM ([2]; Plasmodium falciparum, 2µM, 24h preincubation with gametocytes, replicate R1, read-out: % inhibition female (individual replicates) R1): 39.3%; inhibition at 2 µM ([2]; Plasmodium falciparum, 2µM, 24h preincubation with gametocytes, replicate R2, read-out: % inhibition female (individual replicates) R2): 92.2%; inhibition at 2 µM ([2]; Plasmodium falciparum, 2µM, 24h preincubation with gametocytes, replicate R3, read-out: % inhibition female (individual replicates) R3): 35.1%; inhibition at 2 µM ([2]; Plasmodium falciparum, 2µM, 24h preincubation with gametocytes, replicate R4, read-out: % inhibition female (individual replicates) R4): 73.5%; IC50 ([2]; Plasmodium falciparum, PfDGFA, 24 h incubation with gametocytes before induction, female gamete readout, read-out: Female IC50): 290 nM"
CN1CCN(c2cc(-c3cccnc3)nc(-c3ccncc3)n2)CC1 [TCMDC-125593],–,–,–,–,–,–,–,–,–,–,–,"% inhibition male (individual replicates) R1 [1, 3]: -6.4%; % inhibition male (individual replicates) R3 [1, 4]: -15.1%; % inhibition male (individual replicates) R4 [1, 5]: 5.5%; Average inhibition male (%) [1, 6]: -4.3%; % inhibition female (individual replicates) R1 [2, 3]: -2.3%; % inhibition female (individual replicates) R3 [2, 4]: -6.8%; % inhibition female (individual replicates) R4 [2, 5]: 22.4%; Average inhibition female (%) [2, 6]: 0.0475%"
Br.CCCCCCCCn1c2c(c(=N)c3c1CCC3)CCCC2 [TCMDC-125653],42.3,42.8,52.3,40.6,1,0,10.3,8.6,3.3,15.0,0,–
COc1ccc2nc3cc(Cl)ccc3c(N)c2c1.Cl [TCMDC-125835],–,–,–,–,–,–,–,–,–,–,–,"Average inhibition male (%) [1, 14]: 96.0%; % inhibition male (individual replicates) R1 [1, 15]: 94.1%; % inhibition male (individual replicates) R3 [1, 16]: 90.9%; % inhibition male (individual replicates) R4 [1, 17]: 101.6%; Average inhibition female (%) [2, 14]: 50.6%; % inhibition female (individual replicates) R1 [2, 15]: 39.5%; % inhibition female (individual replicates) R3 [2, 16]: 15.3%; % inhibition female (individual replicates) R4 [2, 17]: 62.7%"
Clc1ccc(Cc2nc3ccccc3[nH]2)cc1Cl [TCMDC-125878],–,–,–,–,–,–,–,–,–,–,–,"% inhibition male (individual replicates) R1 [1, 3]: 0.8%; % inhibition male (individual replicates) R3 [1, 4]: -14.5%; % inhibition male (individual replicates) R4 [1, 5]: 2.2%; Average inhibition male (%) [1, 6]: -4.5%; % inhibition female (individual replicates) R1 [2, 3]: 8.9%; % inhibition female (individual replicates) R3 [2, 4]: -15.0%; % inhibition female (individual replicates) R4 [2, 5]: -0.8%; Average inhibition female (%) [2, 6]: 0.655%"
COc1ccc(CCNCCCCCCNCCc2ccc(-c3ccccc3)cc2)cc1OC.Cl [TCMDC-131267],–,–,–,–,–,–,–,–,–,–,–,"Average inhibition male (%) [1, 14]: 91.2%; % inhibition male (individual replicates) R1 [1, 15]: 90.5%; % inhibition male (individual replicates) R4 [1, 17]: 88.4%; Average inhibition female (%) [2, 14]: 51.9%; % inhibition female (individual replicates) R1 [2, 15]: 49.5%; % inhibition female (individual replicates) R3 [2, 16]: 51.6%; % inhibition female (individual replicates) R4 [2, 17]: 50.9%"
COc1ccc(CCNCCCCCNCCc2ccc(Cl)cc2)cc1OC.Cl [TCMDC-131269],50.1,46.0,29.0,62.2,2,0,7.8,17.8,-21.2,18.8,0,–
Br.Oc1ccc(CCNCCCCCCNCCc2ccc(Cl)c3ccccc23)cc1O [TCMDC-131271],50.9,51.3,62.1,62.3,–,–,16.5,16.8,9.0,24.5,–,"HitlevelM [1, 18]: 3; HitlevelF [2, 19]: 0"
COc1ccc(CCNCCCCCCNCCc2ccc(Cl)c(Cl)c2)cc1OC.Cl [TCMDC-131275],39.4,42.2,31.4,46.9,0,0,10.6,26.6,-14.3,22.3,0,–
Br.CC(C)(Cc1ccc(Cl)cc1)NCCCCCCNCCc1ccc(O)c(O)c1 [TCMDC-131277],21.3,17.2,18.9,31.6,–,–,25.5,31.9,42.8,1.4,–,"HitlevelM [1, 18]: 0; HitlevelF [2, 19]: 0"
COc1ccc(CCNCCCCCCNCCCc2ccc(Cl)cc2)cc1OC.Cl [TCMDC-131280],28.8,30.2,15.3,32.2,0,0,17.7,16.6,13.1,24.0,0,–
Br.CCCCc1ccc(CCNCCCCCCNCCc2ccc(O)c(O)c2)cc1 [TCMDC-131281],–,–,–,–,–,–,–,–,–,–,–,"Average inhibition male (%) [1, 20]: 80.5%; % inhibition male (individual replicates) R1 [1, 21]: 68.8%; % inhibition male (individual replicates) R4 [1, 22]: 77.5%; HitlevelM ([1]; number of replicates with >50% inhibition in the male readout, 2µM): 3; Average inhibition female (%) [2, 20]: 39.8%; % inhibition female (individual replicates) R1 [2, 21]: 30.3%; % inhibition female (individual replicates) R3 ([2]; PfDGFA at 2µM, 24h preincubation with gametocytes, replicate R3): 35.5%; % inhibition female (individual replicates) R4 [2, 22]: 31.1%; HitlevelF ([2]; number of replicates with >50% inhibition in the female readout, 2µM): 1"
COc1cccc(CCNCCCCCCNCCc2ccc(Cl)cc2)c1.Cl [TCMDC-131284],40.5,42.7,17.7,36.9,1,0,15.8,18.4,6.6,6.5,0,–
